Tests used:
HaCaT cells [1] = test: Toxicity on cells, MTT assay (Example 4, FIG. 3); format: cell-based, human; conditions: 1 day exposure
Method: Toxicity of test compounds on uninfected cell monolayers was measured using the standard tetrazolium dye MTT.
Test of various agents (BP: Benzoyl peroxide), at the indicated concentrations on triplicates of HaCaT cells in 96-well plates (FIG. 3).
Toxicity on cells (left side of panel): Cell monolayers were exposed to agents as indicated, and 1 day later, cellular viability was analysed by a standard MTT assay (control OD was between 1.15 and 1.3).

Vaccinia virus [2] = format: cell-based
Vaccinia virus [3] = test: Direct virocidal effect on Vaccinia virus, 24 h exposure, BS-C-1 plaque assay (Example 6, FIG. 5); format: cell-based; conditions: 50 μM, 24 h at 37° C.
Method: Direct virocidal effect of various agents on Vaccinia virus (24 h exposure) Triplicates of Vaccinia virus in a 96-well plate were incubated with agents at 50 μM final concentration for 24 h at 37° C. After incubation, virus was diluted 1000-fold and quantified in a standard 24-well BS-C-1 plaque assay.
The various agents used were as follows: BP: Benzoyl peroxide, D: Dicoumarol, DNCB: Dinitrochlorobenzene, DNFB: Dinitrofluorobenzene, K1: Vitamin K1, K2: Vitamin K2, Menadione (M is fresh, M* is Menadione kept at RT for 2 months), MBS: Menadione bisulfite and Control.

Vaccinia virus WR = format: cell-based
Molluscum contagiosum = test: Treatment of a patient with Molluscum contagiosum lesions (topical painting); format: in vivo, human; conditions: 50 mM in DMSO painted on lesions, one to two times per day for 5 days, after 4 weeks
Method: A patient, previously treated for Molluscum contagiosum infection with curettage, had two recurrences of Molluscum contagiosum. In each instance, a number of early lesions, which where in the elbow region or the lower jaw region respectively, were treated one to two times per day for 5 consecutive days. Treatment consisted of painting the lesions with a cotton stick, applying a solution of 50 mM Menadione dissolved in DMSO to the tip of the lesion. […] Concentrations of Menadione, its analogues and additional compounds used in this invention are as indicated below: […]

HaCaT cells [4] = conditions: 25 μM, 1 day, MTT

SMILES: O=C(OOC(=O)c1ccccc1)c1ccccc1 [BP, Benzoyl peroxide]
- cell toxicity (HaCaT cells [1]): dose-dependent cell toxicity
- virus replication (Vaccinia virus [2]): inhibition of virus replication
- reduction of virus infectivity (direct virocidal effect) (Vaccinia virus [3]): 43%

SMILES: O=c1oc2ccccc2c(O)c1Cc1c(O)c2ccccc2oc1=O [Dicoumarol]
- cell toxicity (HaCaT cells [1]): dose-dependent cell toxicity
- virus replication (Vaccinia virus [2]): inhibition of virus replication

SMILES: Oc1ccc(O)cc1 [Hydroquinone]
- cell toxicity (HaCaT cells [1]): no effect
- virus replication (Vaccinia virus [2]): no effect

SMILES: CC1(S(=O)(=O)[O-])CC(=O)c2ccccc2C1=O.[Na+] (centres unmarked) [Menadione bisulfite]
- virus progeny (Vaccinia virus WR): reduced virus progeny in a dose-dependend manner
- cell toxicity (HaCaT cells [1]): dose-dependent cell toxicity
- virus replication (Vaccinia virus [2]): inhibition of virus replication
- reduction of virus infectivity (direct virocidal effect) (Vaccinia virus [3]): 95%

SMILES: CC1=CC(=O)c2ccccc2C1=O [Menadione, 2-methyl-1,4-naphthoquinone]
- state of the skin after treatment of Molluscum contagiosum lesions (Molluscum contagiosum): normal and without scar or discoloration
- virus progeny (Vaccinia virus WR): reduced virus progeny in a dose-dependend manner
- effect on cell viability (HaCaT cells [4]): < 30%

From patent US20130224286A1, “METHODS AND COMPOSITIONS FOR TREATING POX VIRUS INFECTIONS” (priority 2010, published 2013)
